From patent publication US20080227732A1, “Treatment and Control of Severe Infections Including Cystic Fibrosis” (VENUS REMEDIES LIMITED, priority 2005, published 2008)

What was measured:
[1] = tested on: C. albicanus; experiment: Bacterial susceptibility test, disc diffusion on Müeller-Hinton Agar; type: cell-based; settings: Concentration 2.18 g
Experimental: (§1) This test was performed by disc diffusion test for ceftazidime and tobramycin on Müeller-Hinton Agar medium purchased from Hi Media. The medium was prepared and used as per manufacturer's instructions. Ceftazidime alone, Tobramycin alone and the combination of Ceftazidime and Tobramycin, on different micro-organisms was taken. […] For each concentration the three zones were observed i.e for combination, Ceftazidime alone and Tobramycin alone and tested for efficacy against various types of micro-organisms.

[2] = tested on: E. coli; experiment: as above; type: cell-based; settings: for Zone size: Concentration 1.12 g; for zone of inhibition: Escherichia coli, Concentration 560 mg
Experimental: as §1

[3] = tested on: MRSA; experiment: as above; type: cell-based; settings: for zone of inhibition: Staphylococcus aureus, MRSA, Concentration 560 mg
Experimental: as §1

[4] = tested on: P. aurignosa; experiment: as above; type: cell-based; settings: for zone of inhibition: Concentration 560 mg; for Zone size: Concentration 1.12 g
Experimental: as §1

[5] = tested on: Klebsiella; experiment: as above; type: cell-based, Klebsiella pneumoniae; settings: Concentration 2.18 g
Experimental: as §1

[6] = tested on: Stapylococcus; experiment: as above; type: cell-based, Staphylococcus (MSSA); settings: Concentration 2.18 g
Experimental: as §1

[7] = febrile children with neutropenia, 5 to 10 days of therapy; cited from earlier work
[8] = cited from earlier work
[9] = High: C 2.0, T 0.18, I 2.18 mg/ml
[10] = Highest: C 20.0, T 1.8, I 21.8 mg/ml
[11] = Low: C 0.2, T 0.018, I 0.218 mg/ml
[12] = Lowest: C 0.02, T 0.0018, I 0.0218 mg/ml
[13] = High: C 1.0, T 0.12, I 1.12 mg/ml
[14] = Highest: C 10.0, T 1.2, I 11.2 mg/ml
[15] = Low: C 0.1, T 0.01, I 0.112 mg/ml
[16] = Lowest: C 0.01, T 0.001, I 0.011 mg/ml
[17] = High: C 0.5, T 0.06, I 0.56 mg/ml
[18] = Highest: C 5.0, T 0.6, I 5.6 mg/ml
[19] = Low: C 0.05, T 0.006, I 0.056 mg/ml
[20] = Lowest: C 0.005, T 0.0006, I 0.0056 mg/ml
[21] = Concentration 1.12 g, High: C 1.0, T 0.12, I 1.12 mg/ml
[22] = Concentration 1.12 g, Highest: C 10.0, T 1.2, I 11.2 mg/ml
[23] = Concentration 1.12 g, Low: C 0.1, T 0.01, I 0.112 mg/ml
[24] = Concentration 1.12 g, Lowest: C 0.01, T 0.001, I 0.011 mg/ml
[25] = Concentration 2.18 g, High: C 2.0, T 0.18, I 2.18 mg/ml
[26] = Concentration 2.18 g, Highest: C 20.0, T 1.8, I 21.8 mg/ml

Q: Which Zone size [1, 9] does the source give for `CC(C)(O/N=C(\C(=O)N[C@@H]1C(=O)N2C(C(=O)[O-])=C(C[n+]3ccccc3)CS[C@H]12)c1csc(N)n1)C(=O)O` [C, Ceftazidime] here?
A: 31.25 mm

Q: And the Zone size [1, 10]?
A: 37.55 mm

Q: What about the Zone size [1, 11] of the same molecule?
A: 18.37 mm

Q: What about the Zone size [1, 12] of the same molecule?
A: 12.90 mm

Q: What about the Zone size [2, 13] of the same molecule?
A: 42.10 mm

Q: And the Zone size [2, 14]?
A: 47.34 mm

Q: And the Zone size [2, 15]?
A: 35.49 mm

Q: What about the Zone size [2, 16] of the same molecule?
A: 33.34 mm

Q: What about the zone of inhibition [2, 17] of the same molecule?
A: 42.1 mm

Q: And the zone of inhibition [2, 18]?
A: 47.3 mm

Q: And the zone of inhibition [2, 19]?
A: 35.5 mm

Q: And the zone of inhibition [2, 20]?
A: 33.3 mm

Q: And the Zone size [3, 21]?
A: 12.53 mm

Q: And the Zone size [3, 22]?
A: 22.39 mm

Q: What about the Zone size [3, 23] of the same molecule?
A: 0 mm

Q: And the Zone size [3, 24]?
A: 0 mm

Q: And the Zone size [3, 25]?
A: 27.32 mm

Q: What about the Zone size [3, 26] of the same molecule?
A: 44.93 mm

Q: And the zone of inhibition [3, 17]?
A: 12.9 mm

Q: What about the zone of inhibition [3, 18] of the same molecule?
A: 21.2 mm

Q: What about the zone of inhibition [3, 20] of the same molecule?
A: 0 mm

Q: What about the zone of inhibition [4, 17] of the same molecule?
A: 36 mm

Q: And the zone of inhibition [4, 18]?
A: 41.8 mm

Q: And the zone of inhibition [4, 19]?
A: 24.5 mm

Q: What about the zone of inhibition [4, 20] of the same molecule?
A: 14.4 mm

Q: What about the Zone size [4, 13] of the same molecule?
A: 44.10 mm

Q: And the Zone size [4, 14]?
A: 48.34 mm

Q: What about the Zone size [4, 15] of the same molecule?
A: 32.48 mm

Q: And the Zone size [4, 16]?
A: 29.34 mm

Q: And the Zone size [5, 9]?
A: 47.47 mm

Q: And the Zone size [5, 10]?
A: 51.22 mm

Q: And the Zone size [5, 11]?
A: 46.30 mm

Q: And the Zone size [6, 9]?
A: 35.76 mm

Q: What about the Zone size [6, 10] of the same molecule?
A: 50.93 mm

Q: And the Zone size [6, 11]?
A: 22.45 mm

Q: What about the “patients clinically cured at the end of therapy” value [7] of the same molecule?
A: 67%

Q: And the “overall response rate in septicaemia” value ([8]; cancer patients)?
A: 75%

Q: What about the overall response rate ([8]; episodes of infection in cancer patients) of the same molecule?
A: 60%

Q: For `NC[C@H]1O[C@H](O[C@H]2[C@H](O)[C@@H](O[C@H]3O[C@H](CO)[C@@H](O)[C@H](N)[C@H]3O)[C@H](N)C[C@@H]2N)[C@H](N)C[C@@H]1O` [T, Tobramycin], which Zone size [1, 9] is on record?
A: 26.45 mm

Q: What about the Zone size [1, 10] of the same molecule?
A: 35.47 mm

Q: And the Zone size [1, 11]?
A: 15.65 mm

Q: And the Zone size [1, 12]?
A: 0 mm

Q: And the Zone size [2, 13]?
A: 25.02 mm

Q: And the Zone size [2, 14]?
A: 30.30 mm

Q: And the Zone size [2, 15]?
A: 22.16 mm

Q: What about the Zone size [2, 16] of the same molecule?
A: 14.35 mm

Q: What about the zone of inhibition [2, 17] of the same molecule?
A: 25 mm

Q: What about the zone of inhibition [2, 18] of the same molecule?
A: 30.3 mm

Q: What about the zone of inhibition [2, 19] of the same molecule?
A: 22.2 mm

Q: And the zone of inhibition [2, 20]?
A: 14.3 mm

Q: What about the Zone size [3, 21] of the same molecule?
A: 22.45 mm

Q: What about the Zone size [3, 22] of the same molecule?
A: 33.22 mm

Q: What about the Zone size [3, 23] of the same molecule?
A: 10.24 mm

Q: And the Zone size [3, 24]?
A: 9.89 mm

Q: And the Zone size [3, 25]?
A: 14.61 mm

Q: And the Zone size [3, 26]?
A: 17.13 mm

Q: What about the zone of inhibition [3, 17] of the same molecule?
A: 23.9 mm

Q: And the zone of inhibition [3, 18]?
A: 32.4 mm

Q: What about the zone of inhibition [3, 19] of the same molecule?
A: 11.7 mm

Q: And the zone of inhibition [3, 20]?
A: 9.46 mm

Q: And the zone of inhibition [4, 17]?
A: 21.2 mm

Q: What about the zone of inhibition [4, 18] of the same molecule?
A: 32.1 mm

Q: What about the zone of inhibition [4, 19] of the same molecule?
A: 16.7 mm

Q: And the zone of inhibition [4, 20]?
A: 10.9 mm

Q: And the Zone size [4, 13]?
A: 23.02 mm

Q: And the Zone size [4, 14]?
A: 30.31 mm

Q: What about the Zone size [4, 15] of the same molecule?
A: 19.16 mm

Q: What about the Zone size [4, 16] of the same molecule?
A: 11.35 mm

Q: What about the Zone size [5, 9] of the same molecule?
A: 32.07 mm

Q: What about the Zone size [5, 10] of the same molecule?
A: 38.71 mm

Q: What about the Zone size [5, 11] of the same molecule?
A: 31.50 mm

Q: And the Zone size [6, 9]?
A: 27.49 mm

Q: And the Zone size [6, 10]?
A: 36.96 mm

Q: What about the Zone size [6, 11] of the same molecule?
A: 16.68 mm
